Calls of active or inactive are those of the source.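 The calls were made as follows: active = compounds whose fitted half-maximal concentration in the cell-protection dose series is at or below a set limit; inactive = the rest.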
system: H9c2 cardiomyocytes, 2-deoxyglucose stress, ATP luminescence, 2 h; test: protection of cardiomyocytes from 2-deoxyglucose injury, dose response, cell-based, 2-deoxyglucose stress, uHTS hits (AID 588780)

Row | SMILES | IC50
1 | CN(CC(=O)Nc1cccc(F)c1)C(=O)CCc1nc2ccccc2c(=O)[nH]1 | > 79 µM (inactive)
2 | COc1cccc2cc(-c3cc(=O)oc4ccc(OCC(C)=O)cc34)oc12 | > 79 µM (inactive)
3 | O=C(Nc1ccc(C(=O)N2CCOCC2)cc1)c1cnn2c(C(F)F)cc(-c3ccccc3)nc12 | > 79 µM (inactive)
4 | CN(CC1COc2ccccc2O1)c1nc(-c2cccnc2)nc2ccccc12 (stereo unspecified) | > 79 µM (inactive)
5 | Cc1nc(SCC(=O)NCc2ccc(F)cc2)c2c(=O)n(C)c(=O)n(C)c2n1 | > 79 µM (inactive)
6 | O=c1[nH]c(N2CCN(c3ccccc3)CC2)nc2c1CCC2 | > 79 µM (inactive)
7 | CN1C(=O)CSc2ccc(NC(=O)Nc3ccccn3)cc21 | > 79 µM (inactive)
8 | O=C(COc1ccc(F)cc1)Nc1nc(-c2ccccn2)cs1 | > 79 µM (inactive)
9 | Cc1cc(NC(=O)COC(=O)COc2ccc3c4c(c(=O)oc3c2)CCC4)no1 | > 79 µM (inactive)
10 | NC(=O)COc1ccc2oc(=O)cc(-c3cc4ccccc4o3)c2c1 | > 79 µM (inactive)
11 | Brc1cc2c(cc1/C=N/Nc1nc(N3CCCC3)nc(N3CCOCC3)n1)OCO2 | > 79 µM (inactive)
12 | CC(C)CC(C(=O)NC1CCCCC1)N(Cc1cccs1)C(=O)c1snc(C(N)=O)c1N (stereo unspecified) | 30.1 µM (inactive)
13 | CCN(c1ccc(NC(=O)COC(=O)c2ccc([N+](=O)[O-])o2)cc1)C(C)C | > 79 µM (inactive)
14 | CC/C(C)=N\N=C\c1c(O)n(CC)c2cc(C3=NNC(=O)CC3)ccc12 | 32.4 µM (inactive)
15 | COc1ccccc1-c1cc2nc(-c3ccccc3)cc(N3CCN(C(=O)c4ccco4)CC3)n2n1 | > 79 µM (inactive)
16 | COc1cc(CN2C[C@@H](CO)O[C@@H](n3cnc4c(Nc5ccccc5)ncnc43)C2)cc(OC)c1OC | 12.7 µM
17 | Cc1ccc2nc(SCc3nc4ccccc4c(=O)[nH]3)[nH]c2c1 | > 79 µM (inactive)
18 | COc1ccc(OC)c(Nc2nc(N)nc(-c3cc4ccccc4o3)n2)c1 | > 79 µM (inactive)
19 | COc1ccccc1NC(=O)c1ccc(NC(=O)Cc2n[nH]c(=O)c3ccccc23)cc1 | > 79 µM (inactive)
20 | Cc1ccc(NCc2ccc(O)c3ncccc23)cc1C | > 79 µM (inactive)
21 | CC(NC(=O)c1cc2c(=O)n(C)c3ccccc3c2n1C)c1ccc2c(c1)OCCO2 (stereo unspecified) | 30.5 µM (inactive)
22 | O=C1N[C@H](Cc2ccccc2)COC(=O)[C@@H](Cc2ccc(F)cc2)C/C=C\C[C@H]1CC(=O)N(CCO)Cc1ccccc1 | 20.5 µM
23 | Cc1cccc(NC(=O)c2cc(-c3ccco3)nc3ccccc23)n1 | > 79 µM (inactive)

Row | SMILES | IC50
24 | COc1ccccc1NS(=O)(=O)c1ccc2oc(SCC(=O)N3CCNC3=O)nc2c1 | 36.5 µM (inactive)
25 | COc1ccc(NC(=O)N(CCCN(C)C)Cc2cc3cc(OC)ccc3[nH]c2=O)cc1 | > 79 µM (inactive)
26 | Cc1ccc(C)c(C(=O)Nc2cc(C)nn2-c2nc(C)cc(C)n2)c1 | > 79 µM (inactive)
27 | Oc1c(Br)cc(Cl)cc1C=Nc1ccccc1Br | 31.6 µM (inactive)
28 | COc1cccc(/C=N/NC(=O)c2oc3nc(-c4ccccc4)cc(-c4ccco4)c3c2N)c1 | > 79 µM (inactive)
29 | CCOC(=O)c1c(C)nc2sc3c(=O)n(-c4ccc(C(C)=O)cc4)cnc3c2c1-c1ccc(OC)cc1 | > 79 µM (inactive)
30 | CCc1nc2ccc(C(=O)Nc3cc(-c4ccccc4)ccc3OC)cn2c1N(C)Cc1nccs1 | 9.62 µM
31 | NC(=O)c1nsc(C(=O)N(c2ccccc2)C(C(=O)NC2CCCC2)c2ccc3ncccc3c2)c1N (stereo unspecified) | > 79 µM (inactive)
32 | COc1ccc2[nH]c(=O)c(CNC3CCCCC3)cc2c1 | > 79 µM (inactive)
33 | CN(C)C(=O)CSc1nc2ccccc2c(=O)[nH]1 | > 79 µM (inactive)
34 | Cn1c(=O)[nH]c(=O)c2c1nc(NCCc1ccccc1)n2CC(O)COc1ccccc1 (stereo unspecified) | > 79 µM (inactive)
35 | COc1ccnc(Oc2ccc(F)cc2)c1C(=O)N/C=N/OCc1ccc(Cl)cc1Cl | 12.3 µM
36 | COc1cc(/C=C(\C#N)C(=O)Nc2ccccc2F)ccc1OCCN1CCOCC1 | 25.9 µM
37 | O=C1N[C@H](Cc2c[nH]c3ccccc23)COC(=O)[C@H](Cc2ccc(F)cc2)C/C=C\C[C@H]1CC(=O)N(CCO)Cc1ccccc1 | 17.6 µM
38 | COC(=O)c1cc2c(-c3ccccc3)cc3ccccn3c-2c1C(=O)OC | 13 µM
39 | O=C(Nc1cc(=O)c2ccccc2o1)N1CCCCC1 | > 79 µM (inactive)
40 | N#C/C(=C\c1ccc(-c2cccc([N+](=O)[O-])c2)o1)C(=O)NCCN1CCOCC1 | > 79 µM (inactive)
41 | Cc1ccc(NC(=O)CCCc2nc3ccccc3c(=O)[nH]2)c(Cl)c1 | 40 µM (inactive)
42 | COc1ccc(-c2ccc(Nc3ccc(S(=O)(=O)N4CCCC4)cc3)nn2)cc1OC | 25 µM
43 | Cn1ncc(Cl)c1C(=O)N/N=C/c1ccccn1 | > 79 µM (inactive)
44 | CC(C)(C)OC(=O)C[C@H]1C/C=C\C[C@H](CC(=O)N[C@H](CO)Cc2ccccc2)C(=O)N[C@H](Cc2ccccc2)COC1=O | 20.5 µM
45 | O=C(COc1ccccc1Cl)NNC(=O)Cn1[nH]c(=O)c2ccccc2c1=O | > 79 µM (inactive)
46 | O=c1[nH]nc(Cc2ccccn2)c2ccccc12 | > 79 µM (inactive)

From PubChem BioAssay AID588780 (Sanford-Burnham Center for Chemical Genomics, 2011)
